Assay results taken from the METLIN SMRT retention time set (Domingo-Almenara et al. 2019).

test: gradient 5% acetonitrile 3 min, to 50% in 2 min, to 85% in 15 min, held 3 min, 100 µL/min; details: column: Zorbax Extend-C18 2.1 x 50 mm; eluents: water / acetonitrile, 0.1% formic acid
Method in brief: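 Standards, all pure, were combined into mixtures of ~100 molecules and run at 100 μL/min on a Zorbax Extend-C18 column (2.1 × 50 mm, 1.8 μm) with water and acetonitrile, each containing 0.1% formic acid. A coupled quadrupole time-of-flight mass spectrometer operated in positive and negative ionization mode. Retention time values come from computationally picked adduct peaks, each inspected manually.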

| SMILES | RP-LC retention time [s] |
| --- | --- |
| O=C(NCc1cccc(C(F)(F)F)c1)C1CCN(c2cc(N3CCOCC3)ncn2)CC1 | 672 |
| Cc1sc(-c2cc(C(F)(F)F)[nH]n2)cc1S(=O)(=O)NCCc1cccs1 | 990 |
| CCCCn1cc(S(=O)(=O)NCc2ccccc2C(F)(F)F)c2cccnc21 | 1040 |
| Cc1ccc(CNC(=O)c2nc(-c3ccnc(N4CCCCC4)c3)no2)o1 | 756 |
| CCOC(=O)c1c(NCc2ccccc2Cl)c2cccc(Cl)c2[nH]c1=O | 867 |
| COC(=O)c1ccc(NC(=O)C2CCN(c3cc(N4CCCCC4)ncn3)CC2)cc1 | 715 |
| Cc1ccc(-c2nc3nc(C)cc(C)n3c2Nc2ccccc2C)cc1 | 782 |
| O=C(NCCCN1CCOC(c2ccccc2)C1)NC1CCCCC1 (configuration not stated) | 584 |
| CCCCOc1ccc(NC(=O)c2cc(=O)c3ccc(C)c(C)c3o2)c2cccnc12 | 788 |
| CCCCN(C(=O)C1CC1)C1CCS(=O)(=O)C1 (configuration not stated) | 665 |
| O=C(NCc1cccs1)C1CCN(c2nnc3ccccn23)CC1 | 528 |
| COc1ccccc1N1CCN(CCNC(=O)Cc2ccc(Cl)cc2)CC1 | 572 |
| O=C(NCc1cccs1)c1cc(=O)c(OCc2ccccc2)co1 | 727 |
| Cc1ccc(C)c(-c2csc(Nc3ccccn3)n2)c1 | 821 |
| CCc1ccc(CNC(=O)C2CCCN(c3nc4c(s3)c(C)nn4-c3ccc(C)cc3)C2)cc1 (configuration not stated) | 1260 |
| COCC(=O)Nc1ccc2nc(-c3ccc(F)cc3)cc(OCC(=O)OC)c2c1 | 682 |
| CCN1C(=O)c2cccnc2Sc2cc(NC(=O)c3sccc3C)ccc21 | 842 |
| CCCn1c(C)cnc1C1CN(S(=O)(=O)c2ccc(F)c(Cl)c2)C1 | 706 |
| Cc1cccc(N2CCN(c3ccc4nnc(CCc5nc(-c6ccncc6)no5)n4n3)CC2)c1 | 846 |
| CCn1cc(-c2ccc(OC)cc2)cc1C(=O)N1CCCCCC1 | 1080 |
| CCN1CCCC1CNC(=O)c1nnc(-c2ccc(S(=O)(=O)N3CCC(C)CC3)cc2)o1 (configuration not stated) | 703 |
| Cc1ccccc1Nc1c(-c2cccc(O)c2)nc2ccc(Br)cn12 | 727 |
| O=C(NCCCc1ccccc1)C1CCc2nc(N3CCOCC3)ncc2C1 (configuration not stated) | 744 |

| SMILES | RP-LC retention time [s] |
| --- | --- |
| Cc1ccc(CC(=O)Nc2ccc3nc(N4CCN(CC(=O)N(C)C)CC4)cc(C(=O)O)c3c2)cc1 | 604 |
| CSc1ccccc1NC(=O)c1cnc2ccc(C)cn2c1=O | 806 |
| Cc1ccsc1CCNC(=O)C1CCN(S(=O)(=O)c2ccc3c(c2)CCCC(=O)N3)CC1 | 760 |
| CCn1cc(-c2nc(C)c(C(=O)NCc3ccncc3)s2)c2cccnc21 | 616 |
| C=CCN1C(=O)COc2ccc(-c3csc(NC(=O)C(C)C)n3)cc21 | 895 |
| CCCCNC(=O)CCCN1C(=O)CCn2nc(C)cc21 | 629 |
| COC(=O)c1cc(OCC(=O)Nc2ccc(F)cc2F)c2cc(OC)ccc2n1 | 822 |
| CCN1C(=O)c2cc(C(=O)N3CCN(c4ccccc4F)CC3)nn2CC1(C)C(=O)NC1CCCC1 (configuration not stated) | 840 |
| CN(Cc1ccccc1)Cc1cc(=O)n2cc(Cl)ccc2n1 | 608 |
| CCN1C(=O)C2(c3ccccc31)c1[nH]c3ccccc3c1CCN2C(C)=O (configuration not stated) | 779 |
| Cc1ccccc1NC(=O)NCCc1cn(CC(C)C)c2ncccc12 | 808 |
| CCCN1C(=O)c2cc(S(=O)(=O)Nc3ccc(F)cc3)ccc2Oc2cccnc21 | 1060 |
| O=C(NC1CC1)c1ccc(N2CCC(NCc3ccc(Br)cc3)C2)nc1 (configuration not stated) | 572 |
| O=c1c2cc(-c3ccc4c(c3)OCO4)nn2ccn1Cc1nc(-c2cccc(Cl)c2)no1 | 1080 |
| C=CCNC(=O)N1CCCN(C2=NS(=O)(=O)C(c3cccc(Cl)c3)=C2C)CC1 | 773 |
| CCc1noc(-c2cnc3nc(C)ccc3c2Nc2ccccc2OC)n1 | 629 |
| O=C(c1c(OCC2CC2)cc(=O)n2c1CCCCC2)N1CCN(c2ccccn2)CC1 | 563 |
| Cc1ccc(Cn2c(=O)c(N3CCCC(C(=O)NCCc4ccco4)C3)nc3ccccc32)cc1 (configuration not stated) | 1090 |
| Cc1ccc(Nc2c(-c3ccc(N(C)C)cc3)nc3ccccn23)cc1 | 743 |
| CCOc1ccc2nc(NC(=O)Cn3nc(C(=O)N4CCCCC4)c4ccccc43)sc2c1 | 944 |
| CN(CC1(C)CCOCC1)C(=O)COc1ccc(Cl)cc1 | 816 |
| CCCN1C(=O)c2c(C(=O)NCc3ccc(F)cc3)ncn2CC1(C)C(=O)NC1CCCC1 (configuration not stated) | 796 |
| Cc1ccc(C)c(NC(=O)N2CCCC(C)(C(=O)NCc3ccccc3C)C2)c1 (configuration not stated) | 1020 |

| SMILES | RP-LC retention time [s] |
| --- | --- |
| COc1ccc2c(c1)C1(CCN(S(=O)(=O)c3ccc(Br)cc3)C1)C(=O)N2 (configuration not stated) | 881 |
| O=S(=O)(c1cccnc1)N1CC(c2nc(-c3ccncc3)no2)C1 | 663 |
| Cc1ccc(-c2ccc3nn(CC(=O)NC4CCCCC4)c(=O)n3n2)cc1C | 792 |
| Cc1cc(C)cc(N2CCC(NC(=O)c3ccccc3)C2=O)c1 (configuration not stated) | 857 |
| O=C(Nc1ccc(F)c(F)c1)c1cc(C2CC2)on1 | 860 |
| NC(=O)CCC(C(=O)O)N1C(=O)c2ccc(O)cc2C1=O (configuration not stated) | 620 |
| O=C1NCCN2CC3(CCN(C(=O)Nc4ccccc4F)CC3)CC12 (configuration not stated) | 564 |
| CCNC(=O)N1CC(n2cc(C(=O)NCCOC)nn2)C1 | 1260 |
| CCN1C(=O)COc2ccc(-c3noc(COc4ccc(Cl)cc4)n3)cc21 | 1110 |
| CC(C)Cc1cc(-c2nnc3sc(-c4ccc(N(C)C)cc4)nn23)n[nH]1 | 1060 |
| COc1ccc(NC(=O)C2CCN(S(=O)(=O)c3cc(-c4noc(C5CC5)n4)cs3)CC2)cc1 | 960 |
| CS(=O)(=O)N1CCC(C(=O)N2CCCC(c3nnc(-c4cccs4)o3)C2)CC1 (configuration not stated) | 642 |
| CC(C)CN(CC(C)C)C(=O)C1CCN(S(=O)(=O)c2ccc3c(c2)CCCC(=O)N3)CC1 | 851 |
| COc1ccc(OC)c(S(=O)(=O)Nc2cc(-c3nc4cccnc4s3)ccc2C)c1 | 888 |
| COc1ccc(Cc2nn3c(Cc4ccc(OC)cc4)nnc3s2)cc1 | 913 |
| O=C(N1CC(c2nc(-c3cccs3)no2)C1)C1(c2ccccc2)CCOCC1 | 814 |
| CNC(=O)Nc1ccc(C2(C(=O)NC3CCCC3)CCC2)cc1 | 692 |
| CC(C)CN1C(=O)c2ccccc2C(C(=O)NCCCN2CCOCC2)C1c1cccs1 (configuration not stated) | 644 |
| Cn1cc(CN2CCC(C(=O)NCc3ccccc3)CC2)c2cc(Cl)ccc21 | 714 |
| CCOC(=O)c1nc(Nc2ccc(F)c(Cl)c2)c2ccccc2n1 | 971 |
| O=C(NCC1CCCO1)NC1CCN(c2nc3cccnc3n(Cc3ccccc3)c2=O)CC1 (configuration not stated) | 859 |
